ChEMBL document CHEMBL6177931, “Exploring diverse frontiers: Advancements of bioactive 4-aminoquinoline-based molecular hybrids in targeted therapeutics and beyond” (Eur J Med Chem, 2024)
Converted amounts (≈) assume the structure as drawn.

Key:
Cholinesterase [1] = target: T1, Cholinesterase (Homo sapiens, UniProt P06276); experiment: Inhibition of human BChE
[2] = system: Mycobacterium tuberculosis; experiment: Antitubercular activity against Mycobacterium tuberculosis H37Rv assessed as inhibition of bacterial growth at 250 microg/ml relative to control; assay type: functional
Jurkat E6.1 = experiment: Cytotoxicity against human Jurkat E6.1 cells assessed as reduction in cell viability incubated for 24 hrs by MTT assay; assay type: functional, cell-based; details: Jurkat E6.1, 24 h
HL-60 [3] = experiment: Cytotoxicity against human HL-60 cells assessed as reduction in cell viability incubated for 24 hrs by MTT assay; assay type: functional, cell-based; details: HL-60, 24 h
Bacillus subtilis [4] = experiment: Antibacterial activity against Bacillus subtilis ATCC19659; assay type: functional
Enterococcus faecalis = experiment: Antibacterial activity against Enterococcus faecalis ATCC13047; assay type: functional
[5] = system: Staphylococcus epidermidis; experiment: Antibacterial activity against Staphylococcus epidermidis; assay type: functional
Staphylococcus aureus [6] = experiment: Antibacterial activity against Staphylococcus aureus; assay type: functional
[7] = system: Mycolicibacterium smegmatis; experiment: Antibacterial activity against Mycobacterium smegmatis; assay type: functional
Proteus vulgaris = experiment: Antibacterial activity against Proteus vulgaris ATCC6380; assay type: functional
Klebsiella oxytoca = experiment: Antibacterial activity against Klebsiella oxytoca ATCC8724; assay type: functional
Pseudomonas aeruginosa [8] = experiment: Antibacterial activity against Pseudomonas aeruginosa; assay type: functional
Pseudomonas mevalonii = experiment: Antibacterial activity against Pseudomonas mevalonii; assay type: functional; details: Pseudomonas sp. 'mevalonii'
Escherichia coli [9] = experiment: Antibacterial activity against Escherichia coli ATCC25922; assay type: functional
Candida albicans = experiment: Antifungal activity against Candida albicans MTCC 183 by agar streak dilution method; assay type: functional
Aspergillus niger = experiment: Antifungal activity Aspergillus niger MTCC 282 by agar streak dilution method; assay type: organism-based
Acetylcholinesterase [10] = target: T2, Acetylcholinesterase (Homo sapiens, UniProt P22303); experiment: Inhibition of human erythrocyte AChE using acetylthiocholine as substrate preincubated for 5 mins followed by substrate addition by Ellman's reagent based spectrophotometric analysis
[11] = Cytotoxicity against MDCK cells assessed as cell growth inhibition incubated for 72 hrs by MTT assay; assay type: toxicity, cell-based, Canis lupus familiaris; details: dog
[12] = Antiproliferative activity against human Caco-2 cells assessed as cell growth inhibition incubated for 72 hrs by MTT assay; assay type: toxicity, cell-based
[13] = Inhibition of ConA-induced IL-6 secretion in female BALB/c mouse splenocyte incubated for 48 hrs by ELISA; assay type: functional, cell-based
[14] = Inhibition of ConA-induced IL-1beta secretion in female BALB/c mouse splenocyte incubated for 48 hrs by ELISA; assay type: functional, cell-based
[15] = Inhibition of ConA-induced TNF-alpha secretion in female BALB/c mouse splenocyte incubated for 48 hrs by ELISA; assay type: functional, cell-based
Acetylcholinesterase [16] = target: T2, Acetylcholinesterase; experiment: Inhibition of recombinant human AchE by Ellman's reagent based spectrophotometric analysis
Cholinesterase [17] = target: T1, Cholinesterase; experiment: Inhibition of human BchE by Ellman's reagent based spectrophotometric analysis
A549 = experiment: Antiproliferative activity against human A549 cells; assay type: functional, cell-based
MCF7 [18] = experiment: Antiproliferative activity against human MCF7 cells; assay type: functional, cell-based
MCF7 [19] = experiment: Antiproliferative activity against human MCF7 cells assessed as cell growth inhibition incubated for 72 hrs by MTT assay; assay type: functional
HCT-116 = experiment: Anticancer activity against human HCT-116 cells assessed as cell growth inhibition incubated for 72 hrs by MTT assay; assay type: functional
NCI-H460 = experiment: Anticancer activity against human NCI-H460 cells assessed as cell growth inhibition incubated for 72 hrs by MTT assay; assay type: functional
LN-229 = experiment: Anticancer activity against human LN-229 cells assessed as cell growth inhibition by MTS assay; assay type: functional
CAPAN-1 = experiment: Anticancer activity against human CAPAN-1 cells assessed as cell growth inhibition by MTS assay; assay type: functional
[20] = Anticancer activity against human DND41 cells assessed as cell growth inhibition incubated for 72 hrs by CellTiter96 aqueous Non-Radioactive Cell Proliferation Assay; assay type: functional
HL-60 [21] = experiment: Anticancer activity against human HL-60 cells assessed as cell growth inhibition incubated for 72 hrs by CellTiter96 aqueous Non-Radioactive Cell Proliferation Assay; assay type: functional
K562 = experiment: Anticancer activity against human K562 cells assessed as cell growth inhibition incubated for 72 hrs by CellTiter96 aqueous Non-Radioactive Cell Proliferation Assay; assay type: functional
Z-138 = experiment: Anticancer activity against human Z138 cells assessed as cell growth inhibition incubated for 72 hrs by CellTiter96 aqueous Non-Radioactive Cell Proliferation Assay; assay type: functional
[22] = Cytotoxicity against human Huh-7 cells assessed as reduction in cell viability incubated for 2 days by MTT assay; assay type: toxicity, cell-based; details: time 2 day
Staphylococcus aureus [23] = experiment: Antibacterial activity against Staphylococcus aureus MTCC 96 by agar streak dilution method; assay type: functional
Bacillus subtilis [24] = experiment: Antibacterial activity against Bacillus subtilis MTCC 619 by agar streak dilution method; assay type: functional
Escherichia coli [25] = experiment: Antibacterial activity against Escherichia coli MTCC 739 by agar streak dilution method; assay type: functional
Pseudomonas aeruginosa [26] = experiment: Antibacterial activity against Pseudomonas aeruginosa MTCC 741 by agar streak dilution method; assay type: functional
Acetylcholinesterase [27] = target: T3, Acetylcholinesterase (Electrophorus electricus, UniProt O42275); experiment: Inhibition of electric eel AChE using […] as substrate preincubated for 10 mins followed by substrate addition and measured after 5 mins by Ellman's reagent based spectrophotometric analysis
Cholinesterase [28] = target: T4, Cholinesterase (Equus caballus, UniProt P81908); experiment: Inhibition of equine serum BChE using […] as substrate preincubated for 10 mins followed by substrate addition and measured after 5 mins by Ellman's reagent based spectrophotometric analysis
Acetylcholinesterase [29] = target: T3, Acetylcholinesterase; experiment: Inhibition of electric eel AChE using […] as substrate measured after 2 mins by Ellman's reagent based spectrophotometric analysis
Cholinesterase [30] = target: T4, Cholinesterase; experiment: Inhibition of equine serum BChE using […] as substrate measured after 2 mins by Ellman's reagent based spectrophotometric analysis
Acetylcholinesterase [31] = target: T3, Acetylcholinesterase; experiment: Inhibition of electric eel AChE using […] as substrate measured within 2 mins
Cholinesterase [32] = target: T4, Cholinesterase; experiment: Inhibition of equine serum BChE using […] as substrate measured within 2 mins
HepG2 = experiment: Antiproliferative activity against human HepG2 cells assessed as reduction in cell proliferation incubated for 24 hrs by MTT assay; assay type: functional, cell-based; details: HepG2, 24 h
[33] = system: Mycobacterium tuberculosis; experiment: Antitubercular activity against Mycobacterium tuberculosis H37Rv by microplate alamar blue assay; assay type: functional

T4 sequence (P81908 whole entry): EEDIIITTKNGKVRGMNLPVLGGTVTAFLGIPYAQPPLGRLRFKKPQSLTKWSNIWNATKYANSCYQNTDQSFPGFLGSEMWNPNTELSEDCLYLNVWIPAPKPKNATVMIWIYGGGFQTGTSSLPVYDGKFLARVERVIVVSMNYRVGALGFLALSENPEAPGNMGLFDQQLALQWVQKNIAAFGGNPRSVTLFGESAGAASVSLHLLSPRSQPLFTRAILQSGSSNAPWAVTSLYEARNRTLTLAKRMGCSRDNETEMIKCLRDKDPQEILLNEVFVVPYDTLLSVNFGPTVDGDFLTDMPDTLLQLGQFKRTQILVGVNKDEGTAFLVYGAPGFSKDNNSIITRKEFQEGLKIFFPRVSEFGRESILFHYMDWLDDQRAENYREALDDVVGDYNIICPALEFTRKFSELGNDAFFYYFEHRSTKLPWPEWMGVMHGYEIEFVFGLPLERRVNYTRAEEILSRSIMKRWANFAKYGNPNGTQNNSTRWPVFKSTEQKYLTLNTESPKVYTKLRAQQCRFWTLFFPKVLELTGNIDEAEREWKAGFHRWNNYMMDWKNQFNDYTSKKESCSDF
T1 sequence (P06276 whole entry): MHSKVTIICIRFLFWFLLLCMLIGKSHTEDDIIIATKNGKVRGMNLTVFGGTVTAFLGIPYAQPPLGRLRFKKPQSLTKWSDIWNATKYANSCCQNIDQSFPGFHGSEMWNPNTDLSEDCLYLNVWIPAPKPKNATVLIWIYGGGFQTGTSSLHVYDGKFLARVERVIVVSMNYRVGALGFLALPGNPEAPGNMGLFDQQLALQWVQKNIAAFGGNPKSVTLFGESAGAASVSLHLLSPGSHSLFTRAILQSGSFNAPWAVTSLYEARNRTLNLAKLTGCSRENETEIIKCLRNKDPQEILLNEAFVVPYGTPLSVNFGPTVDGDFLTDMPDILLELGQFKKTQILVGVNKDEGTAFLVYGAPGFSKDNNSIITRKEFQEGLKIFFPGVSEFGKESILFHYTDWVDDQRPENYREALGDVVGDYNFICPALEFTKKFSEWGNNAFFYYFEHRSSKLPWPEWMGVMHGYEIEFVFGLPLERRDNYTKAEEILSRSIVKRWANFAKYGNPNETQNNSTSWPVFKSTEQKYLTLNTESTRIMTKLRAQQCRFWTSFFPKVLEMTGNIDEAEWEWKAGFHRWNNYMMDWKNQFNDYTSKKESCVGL
T3 sequence (O42275 whole entry): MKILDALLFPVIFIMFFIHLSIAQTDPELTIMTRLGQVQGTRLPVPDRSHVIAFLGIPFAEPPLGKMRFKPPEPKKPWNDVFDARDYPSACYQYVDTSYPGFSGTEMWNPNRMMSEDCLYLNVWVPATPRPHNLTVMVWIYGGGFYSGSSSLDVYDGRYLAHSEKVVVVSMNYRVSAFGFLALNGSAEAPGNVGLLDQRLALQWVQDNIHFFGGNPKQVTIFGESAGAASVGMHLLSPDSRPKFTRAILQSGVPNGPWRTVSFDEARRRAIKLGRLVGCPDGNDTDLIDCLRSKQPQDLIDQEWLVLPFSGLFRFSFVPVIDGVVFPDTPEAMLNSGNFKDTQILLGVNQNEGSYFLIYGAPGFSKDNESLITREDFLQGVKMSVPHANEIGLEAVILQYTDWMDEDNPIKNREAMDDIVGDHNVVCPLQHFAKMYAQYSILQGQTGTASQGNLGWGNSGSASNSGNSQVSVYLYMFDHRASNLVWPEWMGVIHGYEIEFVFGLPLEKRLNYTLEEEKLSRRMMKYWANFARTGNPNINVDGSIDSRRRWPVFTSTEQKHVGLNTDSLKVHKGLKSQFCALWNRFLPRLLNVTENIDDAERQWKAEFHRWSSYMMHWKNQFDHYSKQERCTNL
T2 sequence (P22303 whole entry): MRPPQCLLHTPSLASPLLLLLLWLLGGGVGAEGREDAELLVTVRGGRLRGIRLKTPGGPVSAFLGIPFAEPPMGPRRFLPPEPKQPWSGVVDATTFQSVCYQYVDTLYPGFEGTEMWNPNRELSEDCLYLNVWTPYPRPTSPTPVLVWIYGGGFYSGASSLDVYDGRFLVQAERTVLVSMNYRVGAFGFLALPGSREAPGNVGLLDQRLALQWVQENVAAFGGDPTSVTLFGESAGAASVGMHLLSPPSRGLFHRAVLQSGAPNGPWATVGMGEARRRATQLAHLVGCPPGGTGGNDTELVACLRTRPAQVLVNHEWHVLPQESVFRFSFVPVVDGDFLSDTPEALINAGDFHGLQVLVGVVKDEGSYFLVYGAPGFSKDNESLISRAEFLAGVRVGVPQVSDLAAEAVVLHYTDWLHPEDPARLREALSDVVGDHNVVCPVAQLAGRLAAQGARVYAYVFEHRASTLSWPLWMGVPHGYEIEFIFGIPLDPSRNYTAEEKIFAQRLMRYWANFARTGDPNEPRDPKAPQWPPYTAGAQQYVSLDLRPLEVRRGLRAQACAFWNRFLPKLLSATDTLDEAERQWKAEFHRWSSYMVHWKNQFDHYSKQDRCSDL

## Cc1ccc(S(=O)(=O)NCCCCNc2c3c(nc4ccccc24)CCCC3)cc1
Cholinesterase [1]
  IC50: 131 nM

## CO[C@H]1/C=C/O[C@@]2(C)Oc3c(C)c(O)c4c(O)c(c(/C=N/N5CCN(C)CC5)c(O)c4c3C2=O)NC(=O)/C(C)=C\C=C\[C@H](C)[C@H](O)[C@@H](C)[C@@H](O)[C@@H](C)[C@H](OC(C)=O)[C@@H]1C [RIFAMPIN]
[2]
  inhibition at 250 µg/mL: 98%

## COc1cc(/C=C/C(=O)c2cccc(Nc3ccnc4cc(Cl)ccc34)c2)cc(OC)c1OC
Jurkat E6.1
  IC50: 1930 nM
HL-60 [3]
  IC50: 2150 nM

## CC1(C)CC[C@]2(C(=O)OCCNc3ccnc4ccc(Cl)cc34)CC[C@]3(C)C(=CC[C@@H]4[C@@]5(C)CC[C@H](O)C(C)(C)[C@@H]5CC[C@]43C)[C@@H]2C1
Bacillus subtilis [4]
  MIC: 2500 µg/mL (≈ 3780 µM)
Enterococcus faecalis
  MIC: 1250 µg/mL (≈ 1890 µM)
[5]
  MIC: 1250 µg/mL (≈ 1890 µM)
Staphylococcus aureus [6]
  MIC: 1250 µg/mL (≈ 1890 µM)
[7]
  MIC: 1250 µg/mL (≈ 1890 µM)
Proteus vulgaris
  MIC: 2500 µg/mL (≈ 3780 µM)
Klebsiella oxytoca
  MIC: 1250 µg/mL (≈ 1890 µM)
Pseudomonas aeruginosa [8]
  MIC: 2500 µg/mL (≈ 3780 µM)
Pseudomonas mevalonii
  MIC: 2500 µg/mL (≈ 3780 µM)
Escherichia coli [9]
  MIC: 2500 µg/mL (≈ 3780 µM)

## CCCCCOc1ccc(/C=N/Nc2cc(C)nc3ccc(Cl)cc23)cc1
Candida albicans
  MIC: 25 µg/mL (≈ 65.5 µM)
Aspergillus niger
  MIC: 12.5 µg/mL (≈ 32.7 µM)

## CC(C)(C)c1ccc(/C=N/CCNc2c3c(nc4ccccc24)CCCCC3)c(C(C)(C)C)c1O
Cholinesterase [1]
  IC50: 419 nM
Acetylcholinesterase [10]
  IC50: 4030 nM

## Clc1ccc2c(N3CCN(c4ccc(-c5nc6ccccc6[nH]5)cc4)CC3)ccnc2c1
[11]
  IC50 at 72 h: > 100000 nM
[12]
  GI50 at 72 h: > 100000 nM

## CCN(CCO)CCCC(C)Nc1ccnc2cc(Cl)ccc12 (configuration not stated) [HYDROXYCHLOROQUINE]
[13]
  IC50: 16500 nM
[14]
  IC50: 3510 nM
[15]
  IC50: 10000 nM

## Clc1ccc2c(NCCNC34CC5CC(CC(C5)C3)C4)ccnc2c1
Acetylcholinesterase [16]
  Ki: 1600 nM
Cholinesterase [17]
  Ki: 920 nM

## C=CC1(O)c2ccccc2Nc2c1c(-n1ccnc1)nc1ccc(Br)cc21 (configuration not stated)
A549
  IC50: 690 nM
MCF7 [18]
  IC50: 540 nM

## C=C(CC(=O)OC)C(=O)NCCCCNc1ccnc2cc(Cl)ccc12
MCF7 [19]
  GI50: 800 nM
HCT-116
  GI50: 2000 nM
NCI-H460
  GI50: 2000 nM
LN-229
  GI50: 1100 nM
CAPAN-1
  GI50: 1300 nM
[20]
  GI50: 3100 nM
HL-60 [21]
  GI50: 1900 nM
K562
  GI50: 8100 nM
Z-138
  GI50: 1900 nM

## CCN(CCCC(C)Nc1ccnc2cc(Cl)ccc12)CCNC(=O)C(F)(F)C1CCN(CC(O)C(F)(F)F)CC1 (configuration not stated)
[22]
  CC50 at 48 h: 16700 nM
[13]
  IC50: 1600 nM
[14]
  IC50: 720 nM
[15]
  IC50: 15900 nM

## CCCCCCCCOc1cc(/C=N/Nc2cc(C)nc3ccc(Cl)cc23)cc(OCCCCCCCC)c1OCCCCCCCC
Staphylococcus aureus [23]
  MIC: 6.25 µg/mL (≈ 9.19 µM)
Bacillus subtilis [24]
  MIC: 25 µg/mL (≈ 36.7 µM)
Escherichia coli [25]
  MIC: 12.5 µg/mL (≈ 18.4 µM)
Pseudomonas aeruginosa [26]
  MIC: 6.25 µg/mL (≈ 9.19 µM)

## O=C(NCCNc1ccnc2cc(Cl)ccc12)c1ccc(-c2nc3ccccc3[nH]2)cc1
[11]
  IC50 at 72 h: 100000 nM
[12]
  GI50 at 72 h: 16400 nM

## Cc1ccc(CNCCCCCCNc2ccnc3cc(Cl)ccc23)c(O)c1
Acetylcholinesterase [27]
  IC50: 260 nM
Cholinesterase [28]
  IC50: 1580 nM

## CC1(C)CC[C@]2(C(=O)OCCOCCNc3ccnc4ccc(Cl)cc34)CC[C@]3(C)C(=CC[C@@H]4[C@@]5(C)CC[C@H](O)C(C)(C)[C@@H]5CC[C@]43C)[C@@H]2C1
Bacillus subtilis [4]
  MIC: 2500 µg/mL (≈ 3540 µM)
Enterococcus faecalis
  MIC: 1250 µg/mL (≈ 1770 µM)
[5]
  MIC: 2500 µg/mL (≈ 3540 µM)
Staphylococcus aureus [6]
  MIC: 2500 µg/mL (≈ 3540 µM)
[7]
  MIC: 1250 µg/mL (≈ 1770 µM)
Proteus vulgaris
  MIC: 2500 µg/mL (≈ 3540 µM)
Klebsiella oxytoca
  MIC: 2500 µg/mL (≈ 3540 µM)
Pseudomonas aeruginosa [8]
  MIC: 2500 µg/mL (≈ 3540 µM)
Pseudomonas mevalonii
  MIC: 1250 µg/mL (≈ 1770 µM)
Escherichia coli [9]
  MIC: 1250 µg/mL (≈ 1770 µM)

## COc1ccc(C2CC(c3cccc(Nc4ccnc5cc(Cl)ccc45)c3)=NN2)cc1OC (configuration not stated)
Jurkat E6.1
  IC50: 3170 nM
HL-60 [3]
  IC50: 940 nM

## COc1cc(/C=C/C(=O)NCCNc2cc(C)nc3ccccc23)ccc1OCc1ccc(Br)cc1
Acetylcholinesterase [29]
  IC50: 620 nM
Cholinesterase [30]
  IC50: 1180 nM

## Nc1c2c(nc3c1C(c1ccc(F)cc1)C1=C(O3)C(=O)c3ccccc3C1=O)CCCC2 (configuration not stated)
Acetylcholinesterase [31]
  IC50: 890 nM
Cholinesterase [32]
  IC50: 13800 nM

## CCCCCCOc1ccc(/C=N/Nc2cc(C)nc3ccc(Cl)cc23)cc1
Staphylococcus aureus [23]
  MIC: 12.5 µg/mL (≈ 31.6 µM)
Bacillus subtilis [24]
  MIC: 12.5 µg/mL (≈ 31.6 µM)
Escherichia coli [25]
  MIC: 6.5 µg/mL (≈ 16.4 µM)
Pseudomonas aeruginosa [26]
  MIC: 12.5 µg/mL (≈ 31.6 µM)

## Cc1ncsc1/C=N/NC(=O)c1ccc(Nc2ccnc3ccccc23)cc1
HepG2
  IC50: > 80000 nM

## COc1ccc(/C=C/C(=N/NC(N)=O)c2ccc(Nc3ccnc4cc(Cl)ccc34)cc2)cc1OC
[33]
  MIC: 1.56 µM (≈ 0.783 µg/mL)

## CCCOc1ccc(/C=N/Nc2cc(C)nc3ccc(Cl)cc23)cc1
Candida albicans
  MIC: 12.5 µg/mL (≈ 35.3 µM)
Aspergillus niger
  MIC: 25 µg/mL (≈ 70.7 µM)
